Assay results taken from PMC6269792, “Arylsulfonylamino-Benzanilides as Inhibitors of the Apical Sodium-Dependent Bile Salt Transporter (SLC10A2)” (Molecules, 2013).

Assays:
Human ASBT = biological target: T1, Human ASBT (Homo sapiens, UniProt Q12908); assay: ASBT inhibition assay: [3H]-taurocholic acid uptake in HEK293T cells transiently transfected with human ASBT; type: cell-based; details: for inhibition at 10 µM: HEK-293T; for IC50: inhibitor concentration that gives 50% taurocholate uptake compared to no inhibitor control
T1 construct: expressed in transfected cells; host or cells: HEK293T
T1 sequence (Q12908 1-348): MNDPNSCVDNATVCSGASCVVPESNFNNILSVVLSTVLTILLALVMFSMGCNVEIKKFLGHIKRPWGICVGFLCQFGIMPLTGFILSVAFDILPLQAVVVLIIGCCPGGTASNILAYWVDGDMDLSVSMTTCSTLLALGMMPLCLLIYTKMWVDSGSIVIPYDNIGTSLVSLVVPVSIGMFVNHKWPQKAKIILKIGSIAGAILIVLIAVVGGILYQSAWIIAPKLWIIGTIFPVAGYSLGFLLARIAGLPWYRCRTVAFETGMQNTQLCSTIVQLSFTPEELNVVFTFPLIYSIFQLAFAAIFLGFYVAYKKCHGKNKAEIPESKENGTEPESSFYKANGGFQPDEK
Procedure: In vitro inhibitory activity of all target compounds against ASBT was evaluated using a radioisotope-based assay. All the newly synthesized derivatives were initially tested at 10 μM concentration (Table 1).
HEK293T was obtained from the American Type Culture Collection (Manassas, VA, USA), and grown in MEM supplemented with 100 U/mL penicillin and […] streptomycin and 10% heat-inactivated fetal bovine serum. Human ASBT expression construct was prepared as previously described. HEK293T cells were seeded in 12 well plates and transiently transfected with 0.5 μg/well pcDNA3.1/ASBT or negative control plasmid pcDNA3.1 using lipofactamine 2000 (Invitrogen, Carlsbad, CA, USA) according to the manufacturer’s instructions. Twenty-four hours after transfection, HEK293T cells were assayed for taurocholic acid uptake as previously described with minor modifications. […] To terminate the transport process, the plates were chilled on ice and the cells were immediately washed with ice-cold buffer three times. Cells were lysed with 0.3 mL lysis buffer (0.5% triton x-100) and shaken vigorously for 20 min. The radioactivity of the cell lysate was counted using a MicroBeta^2 Liquid Scintillation and Luminescence Counter (PerkinElmer Life Sciences). Protein concentration of the lysate was used to normalize uptake activity.
The inhibition rate was calculated using the following formula: Inhibition Rate (%) = [(1 − (A − C)/(B − C)] × 100
A, [^3H] uptake value of test compound in [^3H]-TCA buffer added to pcDNA3.1/ASBT transfected cells; B, [^3H] uptake value of DMSO (without inhibitor) in [^3H]-TCA buffer added to pcDNA3.1/ASBT transfected cells; C, [^3H] uptake value of Blank sample (DMSO) in [^3H]-TCA buffer added to empty vector (pcDNA3.1) transfected cells.

Row | Structure (SMILES) | melting point [°C] | inhibition at 10 µM (Human ASBT) [%] | IC50 (Human ASBT) [nM]
1 | Cc1ccc(NC(=O)c2ccccc2NS(=O)(=O)c2ccc([N+](=O)[O-])cc2)cc1C(F)(F)F [Compound 5d3, N-(4-Methyl-3-(trifluoromethyl)phenyl)-2-(4-nitrophenylsulfonamido)benzamide] | 198.8 to 199.6 | 73.7 ± 3.8 | –
2 | O=C(Nc1cccc(OC(F)F)c1)c1ccccc1NS(=O)(=O)c1cccc([N+](=O)[O-])c1 [Compound 5a3, N-(3-(Difluoromethoxy)phenyl)-2-(3-nitrophenylsulfonamido)benzamide] | 127.4 to 128.2 | 89 ± 2.6 | 2840 ± 520
3 | O=C(Nc1cc(Cl)cc(Cl)c1)c1ccccc1NS(=O)(=O)c1cccc([N+](=O)[O-])c1 [Compound 5a7, N-(3,5-Dichlorophenyl)-2-(3-nitrophenylsulfonamido)benzamide] | 209.9 to 210.4 | 56.3 ± 2.8 | –
4 | O=C(Nc1ccc(F)c(Cl)c1)c1cccc(NS(=O)(=O)c2cccc([N+](=O)[O-])c2)c1 [Compound 5b1, N-(3-Chloro-4-fluorophenyl)-3-(3-nitrophenylsulfonamido)benzamide] | 161.3 to 162.6 | 66.3 ± 5 | –
5 | O=C(Nc1cccc(Cl)c1)c1ccccc1NS(=O)(=O)c1cccc([N+](=O)[O-])c1 [Compound 5a9, N-(3-Chlorophenyl)-2-(3-nitrophenylsulfonamido)benzamide] | 167.3 to 168.1 | 46.9 ± 3.6 | –
6 | O=C(Nc1ccc(Cl)cc1Cl)c1ccccc1NS(=O)(=O)c1cccc(F)c1 [Compound 5e1, N-(2,4-Dichlorophenyl)-2-(3-fluorophenylsulfonamido)benzamide] | 146.3 to 147.6 | 42.6 ± 3.4 | –
7 | COc1ccc(NC(=O)c2ccccc2NS(=O)(=O)c2cccc([N+](=O)[O-])c2)cc1O [Compound 5a6, N-(3-Hydroxy-4-methoxyphenyl)-2-(3-nitrophenylsulfonamido)benzamide] | 168.9 to 170.1 | 32.1 ± 3.3 | –
8 | O=C(Nc1cc(F)cc(F)c1)c1ccccc1NS(=O)(=O)c1cccc([N+](=O)[O-])c1 [Compound 5a5, N-(3,5-Difluorophenyl)-2-(3-nitrophenylsulfonamido)benzamide] | 181.1 to 181.9 | 21.6 ± 4.1 | –
9 | O=C(Nc1ccc(Cl)c(Cl)c1)c1cccc(NS(=O)(=O)c2cccc([N+](=O)[O-])c2)c1 [Compound 5b3, N-(3,4-dichlorophenyl)-3-(3-nitrophenylsulfonamido)benzamide] | 192.5 to 193.7 | 62.4 ± 2.9 | –
10 | O=C(Nc1ccc(F)c(Cl)c1)c1ccccc1NS(=O)(=O)c1ccc([N+](=O)[O-])cc1 [Compound 5d2, N-(3-Chloro-4-fluorophenyl)-2-(4-nitrophenylsulfonamido)benzamide] | 226.4 to 227.1 | 75.5 ± 4.4 | –
11 | O=C(Nc1ccc(Cl)c(Cl)c1)c1ccccc1NS(=O)(=O)c1ccc([N+](=O)[O-])cc1 [Compound 5d6, N-(3,4-Dichlorophenyl)-2-(4-nitrophenylsulfonamido)benzamide] | 243.4 to 243.6 | 73.9 ± 2.2 | –
12 | O=C(Nc1ccc(F)c(Cl)c1)c1ccccc1NS(=O)(=O)c1cccc([N+](=O)[O-])c1 [Compound 5a2, N-(3-Chloro-4-fluorophenyl)-2-(3-nitrophenylsulfonamido)benzamide] | 203.4 to 204.1 | 95.4 ± 3.3 | 1320 ± 280
13 | Cc1ccc(NC(=O)c2ccccc2NS(=O)(=O)c2cccc(F)c2)cc1C(F)(F)F [Compound 5e3, 2-(3-Fluorophenylsulfonamido)-N-(4-methyl-3-(trifluoromethyl)phenyl)benzamide] | 168.8 to 169.6 | 57.6 ± 2.9 | –
14 | Cc1ccc(NC(=O)c2ccccc2NS(=O)(=O)c2cccc([N+](=O)[O-])c2)cc1C(F)(F)F [Compound 5a10, N-(4-Methyl-3-(trifluoromethyl)phenyl)-2-(3-nitrophenylsulfonamido)benzamide] | 166.4 to 167.4 | 90.7 ± 4.2 | 1490 ± 90
15 | O=C(Nc1ccc(Cl)c(Cl)c1)c1ccc(NS(=O)(=O)c2cccc([N+](=O)[O-])c2)cc1 [Compound 5c2, N-(3,4-Dichlorophenyl)-4-(3-nitrophenylsulfonamido)benzamide] | 189.2 to 190.5 | 34.8 ± 3.7 | –
16 | O=C(Nc1ccc(F)c(Cl)c1)c1ccccc1NS(=O)(=O)c1cccc(F)c1 [Compound 5e2, N-(3-Chloro-4-fluorophenyl)-2-(3-fluorophenylsulfonamido)benzamide] | 178.6 to 179.9 | 63.2 ± 3.8 | –
17 | O=C(Nc1cccc(OC(F)(F)F)c1)c1ccc(NS(=O)(=O)c2cccc([N+](=O)[O-])c2)cc1 [Compound 5c1, 4-(3-Nitrophenylsulfonamido)-N-(3-(trifluoromethoxy)phenyl)benzamide] | 177.3 to 178.2 | 29.6 ± 3.5 | –
18 | O=C(Nc1cccc(OC(F)(F)F)c1)c1ccccc1NS(=O)(=O)c1ccc([N+](=O)[O-])cc1 [Compound 5d5, 2-(4-Nitrophenylsulfonamido)-N-(3-(trifluoromethoxy)phenyl)benzamide] | 198.8 to 199.4 | 66.7 ± 3.9 | –

The next lines start with the values.

Row | melting point [°C] | inhibition at 10 µM (Human ASBT) [%] | IC50 (Human ASBT) [nM] | Structure (SMILES)
19 | 169.1 to 170.4 | 88.1 ± 2.7 | 1030 ± 160 | O=C(Nc1cccc(OC(F)(F)F)c1)c1ccccc1NS(=O)(=O)c1cccc(OC(F)(F)F)c1 [Compound 5g4, N-(3-(Trifluoromethoxy)phenyl)-2-(3-(trifluoromethoxy)phenylsulfonamido)benzamide]
20 | 160.3 to 161.4 | 20.1 ± 1.9 | – | COc1cccc(S(=O)(=O)Nc2ccccc2C(=O)Nc2ccc(Cl)c(Cl)c2)c1 [Compound 5f5, N-(3,4-Dichlorophenyl)-2-(3-methoxyphenylsulfonamido)benzamide]
21 | 179.1 to 180.6 | 40.6 ± 2.8 | – | O=C(Nc1ccc(Cl)c(Cl)c1)c1ccccc1NS(=O)(=O)c1cccc(F)c1 [Compound 5e5, N-(3,4-Dichlorophenyl)-2-(3-fluorophenylsulfonamido)benzamide]
22 | 157.3 to 158.6 | 98.6 ± 2.6 | 110 ± 50 | O=C(Nc1ccc(F)c(Cl)c1)c1ccccc1NS(=O)(=O)c1cccc(OC(F)(F)F)c1 [Compound 5g2, N-(3-Chloro-4-fluorophenyl)-2-(3-(trifluoromethoxy)phenylsulfonamido)benzamide]
23 | 165.7 to 166.6 | 43 ± 3.2 | – | COc1cccc(S(=O)(=O)Nc2ccccc2C(=O)Nc2ccc(C)c(C(F)(F)F)c2)c1 [Compound 5f3, 2-(3-Methoxyphenylsulfonamido)-N-(4-methyl-3-(trifluoromethyl)phenyl)benzamide]
24 | 151.6 to 152.8 | 89.3 ± 3.3 | 910 ± 180 | O=C(Nc1ccc(Cl)cc1Cl)c1ccccc1NS(=O)(=O)c1cccc(OC(F)(F)F)c1 [Compound 5g1, N-(2,4-Dichlorophenyl)-2-(3-(trifluoromethoxy)phenylsulfonamido)benzamide]
25 | – | 80.8 ± 4.3 | 1220 ± 200 | O=C(Nc1ccc(Cl)c(Cl)c1)c1ccccc1NS(=O)(=O)c1cccc(OC(F)(F)F)c1 [Compound 5g5, N-(3,4-Dichlorophenyl)-2-(3-(trifluoromethoxy)phenylsulfonamido)benzamide]
26 | 138.8 to 139.7 | 21.2 ± 3 | – | COc1cccc(S(=O)(=O)Nc2ccccc2C(=O)Nc2ccc(Cl)cc2Cl)c1 [Compound 5f1, N-(2,4-Dichlorophenyl)-2-(3-methoxyphenylsulfonamido)benzamide]
27 | 149.3 to 150.8 | 25.8 ± 2.1 | – | COc1cccc(S(=O)(=O)Nc2ccccc2C(=O)Nc2cccc(OC(F)(F)F)c2)c1 [Compound 5f4, 2-(3-Methoxyphenylsulfonamido)-N-(3-(trifluoromethoxy)phenyl)benzamide]
28 | 166.8 to 168.7 | 45.7 ± 3.6 | – | O=C(Nc1cccc(OC(F)(F)F)c1)c1ccccc1NS(=O)(=O)c1cccc(F)c1 [Compound 5e4, 2-(3-Fluorophenylsulfonamido)-N-(3-(trifluoromethoxy)phenyl)benzamide]
